For 1 compound, EC50 and Ki results are on record in patent publication US9067928B2 (Genentech, Inc., priority 2008, dated 2015).

Each structure is given as a SMILES string.

The test system of experiment [1] is Mcl-1-/- mouse embryonic fibroblasts (MEF). Kind of experiment: Cell viability assay for Mcl-1-/- mouse embryonic fibroblasts (CellTiter-Glo). The format is cell-based. The following applies: Fibroblast, 1% Fetal Bovine Serum, read-out: MEF Mcl-1-/- KO cell viability results (EC50). The source says:
a. Cell Viability Assay for Mcl-1^−/− Mouse Embryonic Fibroblasts (MEF):
Neutralization of both […] and Mcl-1 anti-apoptotic proteins in normal cells is required before a cell undergoes apoptosis via the downstream Bax/Bak pathway See, Chen. L. et al. Mol. Cell (2005) 17, 393-403; Willis, S. N. et al. Genes Dev. (2005) 19, 1294-1305. A compound that only targets Bcl-xL should not affect normal cells, but could kill certain cancer cells if they rely more on Bcl-xL and less on other anti-apoptotic proteins, e.g. Mcl-1, for survival. To mirror this, compounds of the invention were tested for its effect on survival of wild type (wt) mouse embryo fibroblasts (MEFs), Bax/Bak double knockout (BB DKO) MEFs, MEFs that expressed Noxa, and MEFs that expressed Bad. Noxa specifically neutralizes Mcl-1. […] MEFs that express Noxa mirror cancer cell types that are reliant on Bcl-xL for survival and should be much more sensitive to killing by a Bcl-xL targeting compound than MEFs where both Bcl-xL and Mcl-1 are protective.
In this assay, Mcl-1^(−/−) cells were used to confirm that cell apoptosis in the presence of BH3 mimetic small molecules was due to predominantly Bcl-xL inactivation. This inactivation leaves Bax/Bak unconstrained and results in apoptosis. The […]-GLO Luminescent Cell Viability Assay is a homogeneous method of determining the number of viable cells in culture based on quantitation of the ATP present. The amount of ATP correlates with the presence of metabolically active cells such that following cell lysis the amount of ATP present is proportional to the amount of luminescence measured.
Mcl-1^(−/−) mouse embryonic fibroblasts (MEFs) are an adherent cell line prepared in house. MEFs were grown in Iwaki 75 cm^2 tissue culture flasks (cat #3123-075) with FMA media which consists of: • 89% DME Kelso • 10% heat-inactivated foetal calf serum (FCS) (Hyclone cat #SH30396.03) • 1% 10 mM asparagine (Fluka cat #11149) • 275 μl of a 1:2000 dilution of 2-mercaptoethanol is added to the final 500 ml volume of FMA (Sigma cat #M7522; diluted in MT-PBS)
FMA was stored at 4° C. and used at 37° C. MEFs were cultured in FMA media and harvested in MT-PBS and trypsin. For MEF cell viability assays, cells were seeded separately in plates with 10% FCS-FMA and 1% FCS-FMA. […]
Automated Systems that can be used in this assay include: 1) Multidrop—The MULTIDROP 384 (ThermoLabsystems) dispenser was used to dispense cells aseptically into the assay plates: 2) MiniTrak—The […] system from Perkin Elmer was used for titration of the compound plates; 3) Zymark—The ZYMARK SCICLONE ALH3000 System with 100 nL pintool head was used for compound addition to the cells; 4) EnVision—The ENVISION plate reader was used to measure the viability via the detection of the luminescence. […]

The target of a further experiment is T1, Bcl-2 (Homo sapiens, UniProt P10415).
T1 construct: made in house
T1 sequence (P10415 whole entry, species assumed): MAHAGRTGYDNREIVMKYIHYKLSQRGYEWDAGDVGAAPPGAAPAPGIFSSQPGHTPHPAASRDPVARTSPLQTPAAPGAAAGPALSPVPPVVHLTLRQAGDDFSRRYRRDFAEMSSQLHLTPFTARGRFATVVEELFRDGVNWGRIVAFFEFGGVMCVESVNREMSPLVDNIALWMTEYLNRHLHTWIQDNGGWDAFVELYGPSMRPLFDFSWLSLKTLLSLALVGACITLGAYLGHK
Kind of experiment: TR-FRET binding assay, competition with F-Bak for Bcl-2 binding site. The settings on record: GST-Bcl-2, F-Bak probe. The procedure:
Test compounds were serially diluted in DMSO starting at 50 μM (2× starting concentration; 10% DMSO) and 10 μL transferred into a 384-well plate.
The samples are then mixed on a shaker for 1 minute then incubated for an additional 2 hours at room temperature. For each assay plate, a probe/antibody and protein/antibody/probe mixture were included as a negative and a positive control, respectively. Fluorescence was measured on the Envision (Perkin Elmer) using a 340/35 nm excitation filter and 520/525 (F-Bak) and 495/510 nm (Tb-labeled anti-his antibody) emission filters. Dissociation constants (Ki) were determined using Wang's equation (see, Wang, Z. X. An exact mathematical expression for describing competitive binding of two different ligands to a protein molecule. FEBS Lett. 1995 360:111-114). The TR-FRET assay can be performed in the presence of varying concentrations of human serum (HS) or fetal bovine serum (FBS).
For comparison, the measurement of the competition of compounds of the invention for other Bcl-2 family protein binding sites (e.g., Bcl-2, Mcl-1) using the TR-FRET binding assay was accomplish by substituting GST-Bcl-xL in the TR-FRET assay with other GST-labeled protein, e.g. GST-Bcl-2, GST-Mcl-1 prepared in-house.
For comparison, data (Ki in micromolar) from the measurement of the competition by certain compounds of the invention (i.e., compounds 1, 28, 38, 63, 71, 75, 80, 81, 92 and 94 in Table 1) with F-Bak for the Bcl-2 binding site using the TR-FRET binding assay are, 1.2, 0.15, 0.01, 0.018, 0.50, 0.272, 0.167, 0.66, 0.23 and 0.000003 respectively.
(In TR-FRET formats the signal depends on donor and acceptor labels being close together.)

As for `O=C(O)c1nc(-c2ccc3c(c2)N(C(=O)Nc2nc4ccccc4s2)CCC3)sc1-c1ccc(-c2ccccc2)cc1` [Example 92, 2-(1-(benzo[d]thiazol-2-ylcarbamoyl)-1,2,3,4-tetrahydroquinolin-7-yl)-5-(biphenyl-4-yl)thiazole-4-carboxylic acid], in experiment [1], the EC50 came out at 150 nM. At Bcl-2, this compound gave a Ki of 230 nM.

Usually Ki stands for a measure of affinity in units of concentration, obtained from inhibition or displacement. Read a low Ki as higher affinity.
